# Source: patent US20250367166A1, “NEXT GENERATION DIPROVOCIMS THAT ACTIVATE THE INNATE AND ADAPTIVE IMMUNE RESPONSE” (The Scripps Research Institute, priority 2022, published 2025)
# pEC50: −log10 of the molar value. Where two headings read alike, the source gives them in different places.
# Experiments:
# [1] = target: TLR1/TLR2 (Homo sapiens, UniProt O60603+Q15399); experiment: TNF-α release from PMA-differentiated human THP-1 cells (ELISA); settings: for Emax: THP-1, 4 h, read-out: Efficacy (magnitude) of response versus diprovocim-1 (100%), THP-1; for EC50: read-out: EC50 (nM) (THP-1): EC50 TNF-α release from human THP-1 cells;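 as to all read-outs here: cells exposed to graded compound concentrations for 4 h, TNF-α quantified in supernatant, LPS as positive and DMSO as negative control, values are duplicate means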
# [2] = target: TLR1/TLR2 (Mus musculus, UniProt Q9EPQ1+Q9QUN7); experiment: TNF-α release from thioglycolate-elicited mouse peritoneal macrophages (ELISA); settings: for Emax: 4 h, read-out: Efficacy (magnitude) of response versus diprovocim-1 (100%), mouse macrophages; for EC50: read-out: EC50 (nM) (mouse): EC50 TNF-α release from mouse macrophages
# Chain of TLR1/TLR2 (Mus musculus, UniProt Q9EPQ1+Q9QUN7) (Q9EPQ1 26-795): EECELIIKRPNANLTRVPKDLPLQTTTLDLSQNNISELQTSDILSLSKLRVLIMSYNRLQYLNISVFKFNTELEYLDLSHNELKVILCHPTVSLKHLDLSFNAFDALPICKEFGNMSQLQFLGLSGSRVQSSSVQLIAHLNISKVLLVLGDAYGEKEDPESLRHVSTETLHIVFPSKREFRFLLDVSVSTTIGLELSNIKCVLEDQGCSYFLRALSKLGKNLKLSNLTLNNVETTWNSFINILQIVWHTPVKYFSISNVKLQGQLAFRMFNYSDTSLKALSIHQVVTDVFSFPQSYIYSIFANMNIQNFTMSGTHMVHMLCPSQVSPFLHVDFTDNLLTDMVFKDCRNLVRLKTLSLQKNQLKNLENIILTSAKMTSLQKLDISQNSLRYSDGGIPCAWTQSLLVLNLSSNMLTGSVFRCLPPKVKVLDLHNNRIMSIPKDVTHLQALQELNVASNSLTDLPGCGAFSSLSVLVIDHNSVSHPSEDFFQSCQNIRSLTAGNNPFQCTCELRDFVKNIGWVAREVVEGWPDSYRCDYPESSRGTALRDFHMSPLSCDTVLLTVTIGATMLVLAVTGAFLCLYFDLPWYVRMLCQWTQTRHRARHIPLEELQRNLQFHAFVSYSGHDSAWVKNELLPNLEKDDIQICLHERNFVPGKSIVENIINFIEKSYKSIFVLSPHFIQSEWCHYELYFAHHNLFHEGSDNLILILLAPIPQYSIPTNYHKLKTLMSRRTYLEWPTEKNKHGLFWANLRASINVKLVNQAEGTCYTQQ
# Chain of TLR1/TLR2 (Mus musculus, UniProt Q9EPQ1+Q9QUN7) (Q9QUN7 25-784): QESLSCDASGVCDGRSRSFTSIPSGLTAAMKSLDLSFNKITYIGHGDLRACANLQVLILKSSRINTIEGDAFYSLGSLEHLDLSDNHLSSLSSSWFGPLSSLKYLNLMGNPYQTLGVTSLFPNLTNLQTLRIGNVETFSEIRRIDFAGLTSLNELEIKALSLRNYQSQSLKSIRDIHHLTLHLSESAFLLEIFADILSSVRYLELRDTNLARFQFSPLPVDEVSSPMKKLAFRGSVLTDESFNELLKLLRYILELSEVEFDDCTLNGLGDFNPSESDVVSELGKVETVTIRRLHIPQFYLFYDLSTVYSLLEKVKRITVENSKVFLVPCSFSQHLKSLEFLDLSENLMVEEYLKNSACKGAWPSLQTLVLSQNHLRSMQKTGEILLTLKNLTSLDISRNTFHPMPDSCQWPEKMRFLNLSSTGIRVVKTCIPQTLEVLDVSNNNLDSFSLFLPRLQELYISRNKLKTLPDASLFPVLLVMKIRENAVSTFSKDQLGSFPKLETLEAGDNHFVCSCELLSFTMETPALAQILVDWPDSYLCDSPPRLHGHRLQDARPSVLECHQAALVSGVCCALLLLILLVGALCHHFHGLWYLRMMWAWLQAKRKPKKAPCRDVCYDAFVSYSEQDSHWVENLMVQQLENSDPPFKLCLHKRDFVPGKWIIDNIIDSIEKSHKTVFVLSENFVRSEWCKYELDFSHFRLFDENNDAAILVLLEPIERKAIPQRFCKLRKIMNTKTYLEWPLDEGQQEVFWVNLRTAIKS
# Chain of TLR1/TLR2 (Homo sapiens, UniProt O60603+Q15399) (Q15399 25-786): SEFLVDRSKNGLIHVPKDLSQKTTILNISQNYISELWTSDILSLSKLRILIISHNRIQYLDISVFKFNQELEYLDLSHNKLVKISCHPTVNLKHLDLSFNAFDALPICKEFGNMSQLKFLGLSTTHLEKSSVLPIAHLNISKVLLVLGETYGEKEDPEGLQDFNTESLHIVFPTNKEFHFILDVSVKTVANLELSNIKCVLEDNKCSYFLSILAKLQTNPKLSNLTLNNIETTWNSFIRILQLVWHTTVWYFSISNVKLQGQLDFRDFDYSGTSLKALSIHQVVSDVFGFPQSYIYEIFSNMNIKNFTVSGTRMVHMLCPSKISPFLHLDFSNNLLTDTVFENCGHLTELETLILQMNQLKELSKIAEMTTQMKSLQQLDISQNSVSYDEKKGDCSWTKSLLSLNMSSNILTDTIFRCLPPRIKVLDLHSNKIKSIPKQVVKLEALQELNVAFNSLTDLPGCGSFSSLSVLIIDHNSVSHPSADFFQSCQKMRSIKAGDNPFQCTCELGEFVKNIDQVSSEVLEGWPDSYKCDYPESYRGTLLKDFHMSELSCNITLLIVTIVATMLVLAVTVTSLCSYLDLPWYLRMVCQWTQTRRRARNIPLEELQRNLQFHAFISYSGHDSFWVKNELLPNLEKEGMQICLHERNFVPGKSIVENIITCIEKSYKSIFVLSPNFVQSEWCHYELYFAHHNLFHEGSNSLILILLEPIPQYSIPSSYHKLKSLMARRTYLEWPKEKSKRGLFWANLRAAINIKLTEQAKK
# Chain of TLR1/TLR2 (Homo sapiens, UniProt O60603+Q15399) (O60603 21-784): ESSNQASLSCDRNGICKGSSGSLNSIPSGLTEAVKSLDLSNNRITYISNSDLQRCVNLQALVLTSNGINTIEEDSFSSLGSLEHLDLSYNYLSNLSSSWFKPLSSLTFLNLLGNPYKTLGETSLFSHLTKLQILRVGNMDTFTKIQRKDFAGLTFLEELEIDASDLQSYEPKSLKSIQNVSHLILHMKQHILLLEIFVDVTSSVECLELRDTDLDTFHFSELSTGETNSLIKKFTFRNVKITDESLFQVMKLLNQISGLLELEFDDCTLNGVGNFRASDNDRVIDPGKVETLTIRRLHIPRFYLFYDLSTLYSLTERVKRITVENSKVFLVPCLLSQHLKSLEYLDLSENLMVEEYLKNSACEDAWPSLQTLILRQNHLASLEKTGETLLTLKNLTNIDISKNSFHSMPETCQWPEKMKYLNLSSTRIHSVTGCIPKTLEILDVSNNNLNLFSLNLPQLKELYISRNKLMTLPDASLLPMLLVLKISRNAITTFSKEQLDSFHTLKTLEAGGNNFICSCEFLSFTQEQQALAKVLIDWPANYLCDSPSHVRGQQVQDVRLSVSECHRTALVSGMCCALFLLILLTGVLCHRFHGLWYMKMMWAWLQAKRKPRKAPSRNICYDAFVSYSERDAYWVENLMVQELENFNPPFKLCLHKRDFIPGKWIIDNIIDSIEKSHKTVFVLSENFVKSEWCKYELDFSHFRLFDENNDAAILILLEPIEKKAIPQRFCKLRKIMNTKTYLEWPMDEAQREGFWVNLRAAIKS
structure (smiles),measurement,setting,value
"NC(=O)CCCCCCCCCCCNC(=O)[C@@H]1CN(C(=O)c2ccc(C(=O)N3C[C@@H](C(=O)N[C@H]4C[C@@H]4c4ccccc4)[C@H](C(=O)N[C@H]4C[C@@H]4c4ccccc4)C3)cc2)C[C@H]1C(=O)N[C@H]1C[C@@H]1c1ccccc1 [Compound 12, (3S,4S)—N^3-(12-Amino-12-oxododecyl)-1-(4-((3S,4S)-3,4-bis(((1S,2R)-2-phenylcyclopropyl)-carbamoyl)-pyrrolidine-1-carbonyl)benzoyl)-N^4-((1S,2R)-2-phenyl-cyclopropyl)pyrrolidine-3,4-dicarboxamide]",Emax,[1],110%
same,EC50,[1]; Table 1,0.9 nM
same,Emax,[2],120%
same,EC50,[2]; Table 1,60 nM
"CC(C)(C)OC(=O)N[C@@H](CCC(=O)OCc1ccccc1)C(=O)OCCCCCCCCCCCCNC(=O)[C@@H]1CN(C(=O)c2ccc(C(=O)N3C[C@@H](C(=O)N[C@H]4C[C@@H]4c4ccccc4)[C@H](C(=O)N[C@H]4C[C@@H]4c4ccccc4)C3)cc2)C[C@H]1C(=O)N[C@H]1C[C@@H]1c1ccccc1 [Compound 66, (S)-5-Benzyl 1-(12-((3S,4S)-1-(4-((3S,4S)-3,4-bis-(((1S,2R)-2-phenylcyclopropyl)carbamoyl)-pyrrolidine-1-carbonyl)-benzoyl)-4-(((1S,2R)-2-phenylcyclopropyl)-carbamoyl)pyrrolidine-3-carboxamido)dodecyl) 2-((tert-butoxycarbonyl)-amino)pentanedioate]",Emax,[1],100%
same,EC50,[1]; Table 5,39 nM
same,Emax,[2],210%
same,EC50,[2]; Table 5,450 nM
"CC(C)(C)OC(=O)c1ccc(C(=O)NCCOCCCCCCCCCCCCNC(=O)[C@@H]2CN(C(=O)c3ccc(C(=O)N4C[C@@H](C(=O)N[C@H]5C[C@@H]5c5ccccc5)[C@H](C(=O)N[C@H]5C[C@@H]5c5ccccc5)C4)cc3)C[C@H]2C(=O)N[C@H]2C[C@@H]2c2ccccc2)cc1 [Compound 85, tert-Butyl 4-((2-((12-((3S,4S)-1-(4-((3S,4S)-3,4-bis-(((1S,2R)-2-phenylcyclopropyl)carbamoyl)-pyrrolidine-1-carbonyl)benzoyl)-4-(((1S,2R)-2-phenylcyclopropyl)-carbamoyl)pyrrolidine-3-carboxamido)dodecyl)-oxy)ethyl)carbamoyl)benzoate]",Emax,[1],110%
same,EC50,[1]; Table 6,13.4 nM
same,Emax,[2],160%
same,EC50,[2]; Table 6,36 nM
"O=C(OCCCCCCCCCCCCNC(=O)[C@@H]1CN(C(=O)c2ccc(C(=O)N3C[C@@H](C(=O)N[C@H]4C[C@@H]4c4ccccc4)[C@H](C(=O)N[C@H]4C[C@@H]4c4ccccc4)C3)cc2)C[C@H]1C(=O)N[C@H]1C[C@@H]1c1ccccc1)c1ccc(O)cc1 [Compound 75, 12-((3S,4S)-1-(4-((3S,4S)-3,4-Bis(((1S,2R)-2-phenylcyclopropyl)carbamoyl)pyrrolidine-1-carbonyl)benzoyl)-4-(((1S,2R)-2-phenyl-cyclopropyl)carbamoyl)pyrrolidine-3-carboxamido)-dodecyl 4-hydroxybenzoate]",Emax,[1],100%
same,EC50,[1]; Table 6,1.7 nM
same,Emax,[2],540%
same,EC50,[2]; Table 6,50 nM
"CC(C)(C)OCC(=O)OCCCCCCCCCCCCNC(=O)[C@@H]1CN(C(=O)c2ccc(C(=O)N3C[C@@H](C(=O)N[C@H]4C[C@@H]4c4ccccc4)[C@H](C(=O)N[C@H]4C[C@@H]4c4ccccc4)C3)cc2)C[C@H]1C(=O)N[C@H]1C[C@@H]1c1ccccc1 [Compound 47, 12-((3S,4S)-1-(4-((3S,4S)-3,4-Bis(((1S,2R)-2-phenylcyclopropyl)carbamoyl)pyrrolidine-1-carbonyl)benzoyl)-4-(((1S,2R)-2-phenylcyclopropyl)-carbamoyl)pyrrolidine-3-carboxamido)dodecyl 2-(tert-butoxy)acetate]",Emax,[1],100%
same,EC50,[1]; Table 3,0.65 nM
same,Emax,[2],230%
same,EC50,[2]; Table 3,5 nM
"CC[C@H](C)[C@H](NC(=O)OC(C)(C)C)C(=O)OCCCCCCCCCCCCNC(=O)[C@@H]1CN(C(=O)c2ccc(C(=O)N3C[C@@H](C(=O)N[C@H]4C[C@@H]4c4ccccc4)[C@H](C(=O)N[C@H]4C[C@@H]4c4ccccc4)C3)cc2)C[C@H]1C(=O)N[C@H]1C[C@@H]1c1ccccc1 [Compound 61, (2S,3S)-12-((3S,4S)-1-(4-((3S,4S)-3,4-Bis(((1S,2R)-2-phenylcyclopropyl)carbamoyl)pyrrolidine-1-carbonyl)-benzoyl)-4-(((1S,2R)-2-phenylcyclopropyl)carbamoyl)-pyrrolidine-3-carboxamido)-dodecyl 2-((tert-butoxy-carbonyl)amino)-3-methylpentanoate]",Emax,[1],100%
same,EC50,[1]; Table 5,9 nM
same,Emax,[2],140%
same,EC50,[2]; Table 5,50 nM
"CC(C)(C)OC(=O)NCCOCCOCCOCCOCCC(=O)OCCCCCCCCCCCCNC(=O)[C@@H]1CN(C(=O)c2ccc(C(=O)N3C[C@@H](C(=O)N[C@H]4C[C@@H]4c4ccccc4)[C@H](C(=O)N[C@H]4C[C@@H]4c4ccccc4)C3)cc2)C[C@H]1C(=O)N[C@H]1C[C@@H]1c1ccccc1 [Compound 55, 12-((3S,4S)-1-(4-((3S,4S)-3,4-Bis(((1S,2R)-2-phenyl-cyclopropyl)carbamoyl)pyrrolidine-1-carbonyl)-benzoyl)-4-(((1S,2R)-2-phenylcyclopropyl)carbamoyl)-pyrrolidine-3-carboxamido)-dodecyl 2,2-dimethyl-4-oxo-3,8,11,14,17-pentaoxa-5-azaicosan-20-oate]",reduction in activity relative to diprovocim-1,[1],two-fold reduction in activity
same,Emax,[1],90%
same,EC50,[1]; Table 4,0.26 nM
same,Emax,[2],150%
same,EC50,[2]; Table 4,3.4 nM
"O=C(O)CCOCCOCCOCCNC(=O)[C@@H]1CN(C(=O)c2ccc(C(=O)N3C[C@@H](C(=O)N[C@H]4C[C@@H]4c4ccccc4)[C@H](C(=O)N[C@H]4C[C@@H]4c4ccccc4)C3)cc2)C[C@H]1C(=O)N[C@H]1C[C@@H]1c1ccccc1 [Compound 31, 1-((3S,4S)-1-(4-((3S,4S)-3,4-Bis(((1S,2R)-2-phenylcyclopropyl)carbamoyl)pyrrolidine-1-carbonyl)benzoyl)-4-(((1S,2R)-2-phenylcyclopropyl)-carbamoyl)pyrrolidin-3-yl)-1-oxo-5,8,11-trioxa-2-azatetradecan-14-oic acid]",EC50,[1]; Table 2,100 nM
same,pEC50,[2],< 5.30
"COC(=O)CCCCCCCCCNC(=O)[C@@H]1CN(C(=O)c2ccc(C(=O)N3C[C@@H](C(=O)N[C@H]4C[C@@H]4c4ccccc4)[C@H](C(=O)N[C@H]4C[C@@H]4c4ccccc4)C3)cc2)C[C@H]1C(=O)N[C@H]1C[C@@H]1c1ccccc1 [Compound 4, Methyl 10-((3S,4S)-1-(4-((3S,4S)-3,4-bis(((1S,2R)-2-phenylcyclopropyl)carbamoyl)pyrrolidine-1-carbonyl)-benzoyl)-4-(((1S,2R)-2-phenylcyclopropyl)-carbamoyl)-pyrrolidine-3-carboxamido)-decanoate]",Emax,[1],100%
"COC(=O)CCOCCOCCOCCNC(=O)[C@@H]1CN(C(=O)c2ccc(C(=O)N3C[C@@H](C(=O)N[C@H]4C[C@@H]4c4ccccc4)[C@H](C(=O)N[C@H]4C[C@@H]4c4ccccc4)C3)cc2)C[C@H]1C(=O)N[C@H]1C[C@@H]1c1ccccc1 [Compound 29, Methyl 1-((3S,4S)-1-(4-((3S,4S)-3,4-bis(((1S,2R)-2-phenylcyclopropyl)carbamoyl)pyrrolidine-1-carbonyl)benzoyl)-4-(((1S,2R)-2-phenylcyclopropyl)carbamoyl)-pyrrolidin-3-yl)-1-oxo-5,8,11-trioxa-2-azatetradecan-14-oate]",Emax,[1],110%
same,EC50,[1]; Table 2,40 nM
"COC(=O)CCCCCCCCCCCNC(=O)[C@@H]1CN(C(=O)c2ccc(C(=O)N3C[C@@H](C(=O)N[C@H]4C[C@@H]4c4ccccc4)[C@H](C(=O)N[C@H]4C[C@@H]4c4ccccc4)C3)cc2)C[C@H]1C(=O)N[C@H]1C[C@@H]1c1ccccc1 [Compound 3, Methyl 12-((3S,4S)-1-(4-((3S,4S)-3,4-bis(((1S,2R)-2-phenylcyclopropyl)carbamoyl)pyrrolidine-1-carbonyl)-benzoyl)-4-(((1S,2R)-2-phenylcyclopropyl)-carbamoyl)-pyrrolidine-3-carboxamido)-dodecanoate]",Emax,[2],100%
same,EC50,[2]; Table 1,1.4 nM
"CC(C)(C)OC(=O)CCOCCOCCOCCNC(=O)[C@@H]1CN(C(=O)c2ccc(C(=O)N3C[C@@H](C(=O)N[C@H]4C[C@@H]4c4ccccc4)[C@H](C(=O)N[C@H]4C[C@@H]4c4ccccc4)C3)cc2)C[C@H]1C(=O)N[C@H]1C[C@@H]1c1ccccc1 [Compound 28, tert-Butyl 1-((3S,4S)-1-(4-((3S,4S)-3,4-bis(((1S,2R)-2-phenylcyclopropyl)carbamoyl)pyrrolidine-1-carbonyl)-benzoyl)-4-(((1S,2R)-2-phenylcyclopropyl)carbamoyl)-pyrrolidin-3-yl)-1-oxo-5,8,11-trioxa-2-azatetradecan-14-oate]",EC50,[1]; Table 2,3.1 nM
